Tested on: 993429-296-R-J1-PDC complex spheroid growth, percent test/control
Assay: Anticancer human tumor 993429-296-R-J1-PDC patient-derived uterine sarcoma cell line growth inhibition [Asc]
Conditions: for IC50: curve of first compound; for viability, T/C: stronger effect = lower value
Method in brief: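 Spheroid model: tumor line + HUVEC + hMSC. Single agents and combinations; top conc. at/near clinical Cmax (10 microM if undetermined), half-log dilutions. DMSO stocks at 800-fold test concentration.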
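Also: spheroids exposed to compounds for seven days.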

`COc1c(OCCCN2CCOCC2)ccc2c3n(c(=NC(=O)c4cnc(N)nc4)nc12)CCN3` + CNC(C)C(=O)NC1CN(S(=O)(=O)c2cccc(S(=O)(=O)N3CCC4CCC(C(=O)NC(c5ccccc5)c5ccccc5)N4C(=O)C(NC(=O)C(C)NC)C3)c2)CCC2CCC(C(=O)NC(c3ccccc3)c3ccccc3)N2C1=O was tested, and the IC50 (second compound 0.01 µM) was 16.3 nM, the IC50 (second compound 0.0316 µM) was 9.29 nM and the IC50 (second compound 0.1 µM) was 12.1 nM. For the same compound, the IC50 (second compound 0.316 µM) was 5.34 nM, the IC50 (second compound 1 µM) was 4.09 nM and the viability, T/C (second compound 0.01 µM, first compound 0.00316 µM) was 68.8%. For the same compound, the viability, T/C (second compound 0.01 µM, first compound 0.01 µM) was 60.1%, the viability, T/C (second compound 0.01 µM, first compound 0.0316 µM) was 36.4% and the viability, T/C (second compound 0.01 µM, first compound 0.1 µM) was 12.3%. The viability, T/C (second compound 0.01 µM, first compound 0.316 µM) was 3.69%, the viability, T/C (second compound 0.01 µM, first compound 1 µM) was 1.21% and the viability, T/C (second compound 0.0316 µM, first compound 0.00316 µM) was 54.7%. The viability, T/C (second compound 0.0316 µM, first compound 0.01 µM) was 50%, the viability, T/C (second compound 0.0316 µM, first compound 0.0316 µM) was 32.9% and the viability, T/C (second compound 0.0316 µM, first compound 0.1 µM) was 12.4%. For the same compound, the viability, T/C (second compound 0.0316 µM, first compound 0.316 µM) was 4.55%, the viability, T/C (second compound 0.0316 µM, first compound 1 µM) was 1.09% and the viability, T/C (second compound 0.1 µM, first compound 0.00316 µM) was 57.1%. It also gave a viability, T/C (second compound 0.1 µM, first compound 0.01 µM) of 56.9%, a viability, T/C (second compound 0.1 µM, first compound 0.0316 µM) of 29.9% and a viability, T/C (second compound 0.1 µM, first compound 0.1 µM) of 12.2%. The viability, T/C (second compound 0.1 µM, first compound 0.316 µM) was 3.36%, the viability, T/C (second compound 0.1 µM, first compound 1 µM) was 1.18% and the viability, T/C (second compound 0.316 µM, first compound 0.00316 µM) was 58%. The viability, T/C (second compound 0.316 µM, first compound 0.01 µM) was 39.8%, the viability, T/C (second compound 0.316 µM, first compound 0.0316 µM) was 24.5% and the viability, T/C (second compound 0.316 µM, first compound 0.1 µM) was 8.8%. For the same compound, the viability, T/C (second compound 0.316 µM, first compound 0.316 µM) was 3.2%, the viability, T/C (second compound 0.316 µM, first compound 1 µM) was 1.42% and the viability, T/C (second compound 1 µM, first compound 0.00316 µM) was 52.4%. For the same compound, the viability, T/C (second compound 1 µM, first compound 0.01 µM) was 41.6%, the viability, T/C (second compound 1 µM, first compound 0.0316 µM) was 24.8% and the viability, T/C (second compound 1 µM, first compound 0.1 µM) was 11.3%. For the same compound, the viability, T/C (second compound 1 µM, first compound 0.316 µM) was 4.7% and the viability, T/C (second compound 1 µM, first compound 1 µM) was 0.9%.
Compound `C=C(F)C(=O)N1CCN(c2nc(OCC3CCCN3C)nc3c2CCN(c2cccc4cccc(Cl)c24)C3)CC1CC#N` (stereo not given) + CCN1C(C(=O)NC23CCC(C(=O)O)(CC2)CC3)C(c2cccc(Cl)c2F)C2(C(=O)Nc3cc(Cl)ccc32)C12CCCCC2 has an IC50 (second compound 0.03 µM) of 1100 nM, an IC50 (second compound 0.0949 µM) of 1200 nM and an IC50 (second compound 0.3 µM) of 1010 nM. The IC50 (second compound 0.949 µM) was 1300 nM, the IC50 (second compound 3 µM) was 1580 nM and the viability, T/C (second compound 0.03 µM, first compound 0.0316 µM) was 97.6%. The viability, T/C (second compound 0.03 µM, first compound 0.1 µM) was 95.3%, the viability, T/C (second compound 0.03 µM, first compound 0.316 µM) was 103% and the viability, T/C (second compound 0.03 µM, first compound 1 µM) was 54%. For the same compound, the viability, T/C (second compound 0.03 µM, first compound 3.16 µM) was 7.9%, the viability, T/C (second compound 0.03 µM, first compound 10 µM) was 0.1% and the viability, T/C (second compound 0.0949 µM, first compound 0.0316 µM) was 98.4%. It also gave a viability, T/C (second compound 0.0949 µM, first compound 0.1 µM) of 98.2%, a viability, T/C (second compound 0.0949 µM, first compound 0.316 µM) of 85.2% and a viability, T/C (second compound 0.0949 µM, first compound 1 µM) of 59.8%. The viability, T/C (second compound 0.0949 µM, first compound 3.16 µM) was 8.82%, the viability, T/C (second compound 0.0949 µM, first compound 10 µM) was 0.11% and the viability, T/C (second compound 0.3 µM, first compound 0.0316 µM) was 89.2%. It also gave a viability, T/C (second compound 0.3 µM, first compound 0.1 µM) of 104%, a viability, T/C (second compound 0.3 µM, first compound 0.316 µM) of 105% and a viability, T/C (second compound 0.3 µM, first compound 1 µM) of 50.5%. The viability, T/C (second compound 0.3 µM, first compound 3.16 µM) was 10.4%, the viability, T/C (second compound 0.3 µM, first compound 10 µM) was 0.1% and the viability, T/C (second compound 0.949 µM, first compound 0.0316 µM) was 93%. The viability, T/C (second compound 0.949 µM, first compound 0.1 µM) was 88.3%, the viability, T/C (second compound 0.949 µM, first compound 0.316 µM) was 78.2% and the viability, T/C (second compound 0.949 µM, first compound 1 µM) was 63.9%. It also gave a viability, T/C (second compound 0.949 µM, first compound 3.16 µM) of 5.95%, a viability, T/C (second compound 0.949 µM, first compound 10 µM) of 0.11% and a viability, T/C (second compound 3 µM, first compound 0.0316 µM) of 107%. The viability, T/C (second compound 3 µM, first compound 0.1 µM) was 86.2%, the viability, T/C (second compound 3 µM, first compound 0.316 µM) was 81.7% and the viability, T/C (second compound 3 µM, first compound 1 µM) was 78.1%. For the same compound, the viability, T/C (second compound 3 µM, first compound 3.16 µM) was 7.46% and the viability, T/C (second compound 3 µM, first compound 10 µM) was 0.15%.

Source: PubChem BioAssay AID1963446 (Molecular Pharmacology Branch, DTP, NCI, 2024)
